Starred links: 1 amine or outer side, 2 acyl side, 3 side chain; linkers in the order of their positions; H or OH if unused. Positions of bridges follow the written chain, without caps; N, C: chain ends. Non-standard residues stand in square brackets, D forms with d. Residues, ends and D or L forms follow the SMILES beside them. Groups on a side chain read outwards from the residue. *: point of attachment. Trp(1-CH2COOH) = N[C@@H](Cc1cn(CC(=O)O)c2ccccc12)C(=O)O; NH(2-Cl-4-NO2-phenyl) = O=[N+]([O-])c1ccc(N*)c(Cl)c1; Benzoyl(2-(4-MeOPh)) = COc1ccc(-c2ccccc2C(=O)*)cc1; X23 = COc1cc(NC(=S)*)ccc1-n1cnc(Cl)c1; X24 = COc1cc(NC(=S)*)ccc1-n1cnc(C)n1; X49 = N#Cc1ccccc1NC(=N)c1ccccc1N*; Hyp = O=C(O)[C@@H]1C[C@@H](O)CN1; X80 = S=C(Nc1ccc(-n2cccn2)cc1)*; X94 = S=C(Nc1ccc(N2CCOCC2)nc1)*; X55 = COc1cc(NC(=S)*)cc(OC)c1; NMeNle = CCCC[C@H](NC)C(=O)O; X6 = CCCCCCCOc1ccc(N*)cc1; 3Abz = Nc1cccc(C(=O)O)c1; NMeA = CN[C@@H](C)C(=O)O; Dab = NCC[C@H](N)C(=O)O; Dap = NC[C@H](N)C(=O)O; X37 = Fc1cc(F)cc(N*)c1; CO = O=C([*:1])[*:2]

IC50 data for 13 molecules are collected here from patent US20220389061A1, “IMMUNOMODULATORS” (priority 2019, published 2022).

The first assay deals with T1, PD-1/PD-L1 (Homo sapiens, UniProt Q9NZQ7).
T1 construct: TVMV protease site linker (C); made in house; host or cells: HEK293T cells
T1 sequence (Q9NZQ7 18-239): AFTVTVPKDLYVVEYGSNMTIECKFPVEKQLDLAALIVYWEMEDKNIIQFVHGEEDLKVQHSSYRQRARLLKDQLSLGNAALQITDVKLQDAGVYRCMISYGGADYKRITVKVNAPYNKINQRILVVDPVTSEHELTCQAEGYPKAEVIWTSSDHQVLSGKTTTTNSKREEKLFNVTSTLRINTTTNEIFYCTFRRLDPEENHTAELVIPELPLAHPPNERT
The assay is described as follows: PD-1/PD-L1 Homogenous Time-Resolved Fluorescence (HTRF) binding assay.
Conditions: not given
The method, boiled down:
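Compounds preincubated 15 min with PD-L1-His (10 nM final), then PD-1-Ig (20 nM final) added for 15 min in dPBS with 0.1% BSA, 0.05% Tween-20. Detection by Eu-cryptate anti-Ig (1 nM) and APC anti-His (20 nM) HTRF.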
For orientation: TR-FRET usually uses a lanthanide donor and a delayed reading to cut background.
In general, IC50 refers to the concentration needed to halve the response being measured. Molecule `CCCC[C@H]1C(=O)N(C)[C@@H](CCCC)C(=O)N[C@@H](CC(C)C)C(=O)N[C@H](C(=O)NCC(N)=O)CSCC(=O)N[C@@H](Cc2ccc(O)cc2)C(=O)N(C)[C@@H](C)C(=O)N[C@@H](CC(N)=O)C(=O)N2CCC[C@H]2C(=O)N[C@@H](CNC(=O)Nc2ccc([N+](=O)[O-])cc2Cl)C(=O)N[C@@H](CC(C)C)C(=O)N2C[C@H](O)C[C@H]2C(=O)N[C@@H](Cc2c[nH]c3ccccc23)C(=O)N[C@@H](CCNC(=O)Nc2ccc([N+](=O)[O-])cc2Cl)C(=O)N[C@@H](Cc2cn(CC(=O)O)c3ccccc23)C(=O)N1C` [Example 1096] ({CH2CO}-Y[NMeA]NP[Dap]([CO-NH(2-Cl-4-NO2-phenyl)])L[Hyp]W[Dab]([CO-NH(2-Cl-4-NO2-phenyl)])[Trp(1-CH2COOH)][NMeNle][NMeNle]LCG-NH2; thioether N-14) gave an IC50 of 6.9 nM.

Still in this assay, the particulars now being: PD-L1-His 10 nM pre-incubated with inhibitor, PD-1-Ig 20 nM; read-out: HTRF IC50.
Turning to `CCCCCCCOc1ccc(NC(=O)NC[C@@H]2NC(=O)[C@@H]3CCCN3C(=O)[C@H](CC(N)=O)NC(=O)[C@H](C)N(C)C(=O)[C@H](Cc3ccc(O)cc3)NC(=O)CSC[C@@H](C(=O)NCC(N)=O)NC(=O)[C@H](CC(C)C)NC(=O)[C@H](CCCC)N(C)C(=O)[C@H](CCCC)N(C)C(=O)[C@H](Cc3cn(CC(=O)O)c4ccccc34)NC(=O)[C@H](CCN)NC(=O)[C@H](Cc3c[nH]c4ccccc34)NC(=O)[C@@H]3C[C@@H](O)CN3C(=O)[C@H](CC(C)C)NC2=O)cc1` [Example 1089] ({CH2CO}-Y[NMeA]NP[Dap]([CO-X6])L[Hyp]W[Dab][Trp(1-CH2COOH)][NMeNle][NMeNle]LCG-NH2; thioether N-14), the IC50 came to 12 nM.

Consider `CCCCCCCOc1ccc(NC(=O)NCC[C@@H]2NC(=O)[C@H](Cc3c[nH]c4ccccc34)NC(=O)[C@@H]3C[C@@H](O)CN3C(=O)[C@H](CC(C)C)NC(=O)[C@H](CNC(=O)Nc3ccc(OCCCCCCC)cc3)NC(=O)[C@@H]3CCCN3C(=O)[C@H](CC(N)=O)NC(=O)[C@H](C)N(C)C(=O)[C@H](Cc3ccc(O)cc3)NC(=O)CSC[C@@H](C(=O)NCC(N)=O)NC(=O)[C@H](CC(C)C)NC(=O)[C@H](CCCC)N(C)C(=O)[C@H](CCCC)N(C)C(=O)[C@H](Cc3cn(CC(=O)O)c4ccccc34)NC2=O)cc1` [Example 1090] ({CH2CO}-Y[NMeA]NP[Dap]([CO-X6])L[Hyp]W[Dab]([CO-X6])[Trp(1-CH2COOH)][NMeNle][NMeNle]LCG-NH2; thioether N-14), for which the 50% inhibitory concentration (IC50) came to 242 nM.

`CCCC[C@H]1C(=O)N(C)[C@@H](CCCC)C(=O)N[C@@H](CC(C)C)C(=O)N[C@H](C(=O)NCC(N)=O)CSCC(=O)N[C@@H](Cc2ccc(O)cc2)C(=O)N(C)[C@@H](C)C(=O)N[C@@H](CC(N)=O)C(=O)N2CCC[C@H]2C(=O)N[C@@H](CNC(=S)Nc2ccc(-n3cnc(Cl)c3)c(OC)c2)C(=O)N[C@@H](CC(C)C)C(=O)N2C[C@H](O)C[C@H]2C(=O)N[C@@H](Cc2c[nH]c3ccccc23)C(=O)N[C@@H](CCNC(=S)Nc2ccc(-n3cnc(Cl)c3)c(OC)c2)C(=O)N[C@@H](Cc2cn(CC(=O)O)c3ccccc23)C(=O)N1C` [Example 1091] ({CH2CO}-Y[NMeA]NP[Dap](X23)L[Hyp]W[Dab](X23)[Trp(1-CH2COOH)][NMeNle][NMeNle]LCG-NH2; thioether N-14): the IC50 amounted to 4.3 nM.

For `CCCC[C@H]1C(=O)N(C)[C@@H](CCCC)C(=O)N[C@@H](CC(C)C)C(=O)N[C@H](C(=O)NCC(N)=O)CSCC(=O)N[C@@H](Cc2ccc(O)cc2)C(=O)N(C)[C@@H](C)C(=O)N[C@@H](CC(N)=O)C(=O)N2CCC[C@H]2C(=O)N[C@@H](CNC(=S)Nc2ccc(-n3cnc(C)n3)c(OC)c2)C(=O)N[C@@H](CC(C)C)C(=O)N2C[C@H](O)C[C@H]2C(=O)N[C@@H](Cc2c[nH]c3ccccc23)C(=O)N[C@@H](CCNC(=S)Nc2ccc(-n3cnc(C)n3)c(OC)c2)C(=O)N[C@@H](Cc2cn(CC(=O)O)c3ccccc23)C(=O)N1C` [Example 1092] ({CH2CO}-Y[NMeA]NP[Dap](X24)L[Hyp]W[Dab](X24)[Trp(1-CH2COOH)][NMeNle][NMeNle]LCG-NH2; thioether N-14), the IC50 stood at 3.4 nM.

For `CCCC[C@H]1C(=O)N(C)[C@@H](CCCC)C(=O)N[C@@H](CC(C)C)C(=O)N[C@H](C(=O)NCC(N)=O)CSCC(=O)N[C@@H](Cc2ccc(O)cc2)C(=O)N(C)[C@@H](C)C(=O)N[C@@H](CC(N)=O)C(=O)N2CCC[C@H]2C(=O)N[C@@H](CNC(=S)Nc2ccc(N3CCOCC3)nc2)C(=O)N[C@@H](CC(C)C)C(=O)N2C[C@H](O)C[C@H]2C(=O)N[C@@H](Cc2c[nH]c3ccccc23)C(=O)N[C@@H](CCNC(=S)Nc2ccc(N3CCOCC3)nc2)C(=O)N[C@@H](Cc2cn(CC(=O)O)c3ccccc23)C(=O)N1C` [Example 1093] ({CH2CO}-Y[NMeA]NP[Dap](X94)L[Hyp]W[Dab](X94)[Trp(1-CH2COOH)][NMeNle][NMeNle]LCG-NH2; thioether N-14), the IC50 worked out at 3.3 nM.

With `CCCC[C@H]1C(=O)N(C)[C@@H](CCCC)C(=O)N[C@@H](CC(C)C)C(=O)N[C@H](C(=O)NCC(N)=O)CSCC(=O)N[C@@H](Cc2ccc(O)cc2)C(=O)N(C)[C@@H](C)C(=O)N[C@@H](CC(N)=O)C(=O)N2CCC[C@H]2C(=O)N[C@@H](CNC(=S)Nc2ccc(-n3cccn3)cc2)C(=O)N[C@@H](CC(C)C)C(=O)N2C[C@H](O)C[C@H]2C(=O)N[C@@H](Cc2c[nH]c3ccccc23)C(=O)N[C@@H](CCNC(=S)Nc2ccc(-n3cccn3)cc2)C(=O)N[C@@H](Cc2cn(CC(=O)O)c3ccccc23)C(=O)N1C` [Example 1094] ({CH2CO}-Y[NMeA]NP[Dap](X80)L[Hyp]W[Dab](X80)[Trp(1-CH2COOH)][NMeNle][NMeNle]LCG-NH2; thioether N-14), the IC50 came out at 2.4 nM.

On to `CCCC[C@H]1C(=O)N(C)[C@@H](CCCC)C(=O)N[C@@H](CC(C)C)C(=O)N[C@H](C(=O)NCC(N)=O)CSCC(=O)N[C@@H](Cc2ccc(O)cc2)C(=O)N(C)[C@@H](C)C(=O)N[C@@H](CC(N)=O)C(=O)N2CCC[C@H]2C(=O)N[C@@H](CNC(=O)c2ccccc2-c2ccc(OC)cc2)C(=O)N[C@@H](CC(C)C)C(=O)N2C[C@H](O)C[C@H]2C(=O)N[C@@H](Cc2c[nH]c3ccccc23)C(=O)N[C@@H](CCNC(=O)c2ccccc2-c2ccc(OC)cc2)C(=O)N[C@@H](Cc2cn(CC(=O)O)c3ccccc23)C(=O)N1C` [Example 1095] ({CH2CO}-Y[NMeA]NP[Dap](Benzoyl(2-(4-MeOPh)))L[Hyp]W[Dab](Benzoyl(2-(4-MeOPh)))[Trp(1-CH2COOH)][NMeNle][NMeNle]LCG-NH2; thioether N-14), for which the IC50 amounted to 5.7 nM.

Take `CCCC[C@H]1C(=O)N(C)[C@@H](CCCC)C(=O)N[C@@H](CC(C)C)C(=O)N[C@H](C(=O)NCC(N)=O)CSCC(=O)N[C@@H](Cc2ccc(O)cc2)C(=O)N(C)[C@@H](C)C(=O)N[C@@H](CC(N)=O)C(=O)N2CCC[C@H]2C(=O)N[C@@H](CNC(=O)Nc2ccccc2C(=N)Nc2ccccc2C#N)C(=O)N[C@@H](CC(C)C)C(=O)N2C[C@H](O)C[C@H]2C(=O)N[C@@H](Cc2c[nH]c3ccccc23)C(=O)N[C@@H](CCN)C(=O)N[C@@H](Cc2cn(CC(=O)O)c3ccccc23)C(=O)N1C` [Example 1097] ({CH2CO}-Y[NMeA]NP[Dap]([CO-X49])L[Hyp]W[Dab][Trp(1-CH2COOH)][NMeNle][NMeNle]LCG-NH2; thioether N-14): the IC50 worked out at 5.7 nM.

Consider `CCCC[C@H]1C(=O)N(C)[C@@H](CCCC)C(=O)N[C@@H](CC(C)C)C(=O)N[C@H](C(=O)NCC(N)=O)CSCC(=O)N[C@@H](Cc2ccc(O)cc2)C(=O)N(C)[C@@H](C)C(=O)N[C@@H](CC(N)=O)C(=O)N2CCC[C@H]2C(=O)N[C@@H](CNC(=S)Nc2cc(OC)cc(OC)c2)C(=O)N[C@@H](CC(C)C)C(=O)N2C[C@H](O)C[C@H]2C(=O)N[C@@H](Cc2c[nH]c3ccccc23)C(=O)N[C@@H](CCN)C(=O)N[C@@H](Cc2cn(CC(=O)O)c3ccccc23)C(=O)N1C` [Example 1098] ({CH2CO}-Y[NMeA]NP[Dap](X55)L[Hyp]W[Dab][Trp(1-CH2COOH)][NMeNle][NMeNle]LCG-NH2; thioether N-14), for which the IC50 was 3.1 nM.

As for `CCCCCCCOc1ccc(NC(=O)NC[C@@H]2NC(=O)[C@@H]3CCCN3C(=O)[C@H](CC(N)=O)NC(=O)[C@H](C)N(C)C(=O)[C@H](Cc3ccc(O)cc3)NC(=O)CSC[C@@H](C(=O)NCC(N)=O)NC(=O)[C@H](CC(C)C)NC(=O)[C@H](CCCC)N(C)C(=O)[C@H](CCCC)N(C)C(=O)[C@H](Cc3cn(CC(=O)O)c4ccccc34)NC(=O)[C@H](CCN)NC(=O)[C@H](Cc3c[nH]c4ccccc34)NC(=O)[C@@H]3C[C@@H](O)CN3C(=O)[C@H](CC(C)C)NC2=O)cc1` [Example 1099] ({CH2CO}-Y[NMeA]NP[Dap]([CO-X6])L[Hyp]W[Dab][Trp(1-CH2COOH)][NMeNle][NMeNle]LCG-NH2; thioether N-14), the IC50 was 2.6 nM.

For `CCCC[C@H]1C(=O)N(C)[C@@H](CCCC)C(=O)N[C@@H](CC(C)C)C(=O)N[C@H](C(=O)NCC(N)=O)CSCC(=O)N[C@@H](Cc2ccc(O)cc2)C(=O)N(C)[C@@H](C)C(=O)N[C@@H](CC(N)=O)C(=O)N2CCC[C@H]2C(=O)N[C@@H](CNC(=O)Nc2cccc(C(=O)OCC)c2)C(=O)N[C@@H](CC(C)C)C(=O)N2C[C@H](O)C[C@H]2C(=O)N[C@@H](Cc2c[nH]c3ccccc23)C(=O)N[C@@H](CCNC(=O)Nc2cccc(C(=O)OCC)c2)C(=O)N[C@@H](Cc2cn(CC(=O)O)c3ccccc23)C(=O)N1C` [Example 1100] ({CH2CO}-Y[NMeA]NP[Dap]([CO-3Abz-OEt])L[Hyp]W[Dab]([CO-3Abz-OEt])[Trp(1-CH2COOH)][NMeNle][NMeNle]LCG-NH2; thioether N-14), the half-maximal inhibitory concentration (IC50) amounted to 18 nM.

Turning to `CCCC[C@H]1C(=O)N(C)[C@@H](CCCC)C(=O)N[C@@H](CC(C)C)C(=O)N[C@H](C(=O)NCC(N)=O)CSCC(=O)N[C@@H](Cc2ccc(O)cc2)C(=O)N(C)[C@@H](C)C(=O)N[C@@H](CC(N)=O)C(=O)N2CCC[C@H]2C(=O)N[C@@H](CN)C(=O)N[C@@H](CC(C)C)C(=O)N2C[C@H](O)C[C@H]2C(=O)N[C@@H](Cc2c[nH]c3ccccc23)C(=O)N[C@@H](CCNC(=O)Nc2cc(F)cc(F)c2)C(=O)N[C@@H](Cc2cn(CC(=O)O)c3ccccc23)C(=O)N1C` [Example 1101] ({CH2CO}-Y[NMeA]NP[Dap]L[Hyp]W[Dab]([CO-X37])[Trp(1-CH2COOH)][NMeNle][NMeNle]LCG-NH2; thioether N-14), the IC50 came out at 8.6 nM.
